Laboratory results: patent US20140243302A1, “BRIDGED BICYCLIC COMPOUNDS FOR THE TREATMENT OF BACTERIAL INFECTIONS” (priority 2011, published 2014)
Converted amounts (≈) assume the structure as drawn.

Tested on: Staphylococcus aureus Smith
Assay: MIC assay, modified agar dilution (CLSI), S. aureus Smith
Type: cell-based
Conditions: Staphylococcus aureus, agar dilution, 35° C., 16-20 hr; lowest concentration that completely inhibited growth; read-out: S_aureus_Smith_WT_MIC
Method in brief: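 Strains were spotted at about 1×10^4 CFU onto compound-containing Mueller Hinton agar (two-fold series, 128-0.001 μg/mL), horse blood 5% added for pneumococcus and enterococcus. MIC read after 16-20 hr at 35 °C, following a modified CLSI agar dilution method.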

Structure (SMILES) | MIC [µg/mL]
O=C1COc2ccc(CNC34CCC(CCc5c(F)cnc6ccc(OC[C@H]7C[C@@H](O)[C@@H](O)C7)nc56)(CC3)OC4)nc2N1 [Example 169, 6-((1-(2-(6-(((1r,3R,4S)-3,4-Dihydroxycyclopentyl)methoxy)-3-fluoro-1,5-naphthyridin-4-yl)ethyl)-2-oxabicyclo[2.2.2]octan-4-ylamino)methyl)-2H-pyrido[3,2-b][1,4]oxazin-3(4H)-one] | 0.063 (≈ 0.106 µM)
O=C1COc2ccc(CNC34CCC(CCc5c(F)cnc6ccc(OCC7(O)COC7)nc56)(CC3)OC4)nc2N1 [Example 170, 6-((1-(2-(3-Fluoro-6-((3-hydroxyoxetan-3-yl)methoxy)-1,5-naphthyridin-4-yl)ethyl)-2-oxabicyclo[2.2.2]octan-4-ylamino)methyl)-2H-pyrido[3,2-b][1,4]oxazin-3(4H)-one] | 0.125 (≈ 0.221 µM)
Cl.O=C1COc2ccc(CNC34CCC(C(O)Cc5c(F)cnc6ccc(OCCO)nc56)(CC3)OC4)nc2N1 (stereo not drawn) [Example 171, 6-((1-(2-(3-Fluoro-6-(2-hydroxyethoxy)-1,5-naphthyridin-4-yl)-1-hydroxyethyl)-2-oxabicyclo[2.2.2]octan-4-ylamino)methyl)-2H-pyrido[3,2-b][1,4]oxazin-3(4H)-one Hydrochloride] | 0.125
COc1ccc2ncc(F)c(CC(O)C34CCC(NCc5ccc6c(c5)OCCO6)(CC3)CO4)c2n1 (stereo not drawn) [Example 172, 1-{4-[(2,3-Dihydro-1,4-benzodioxin-6-ylmethyl)amino]-2-oxabicyclo[2.2.2]oct-1-yl}-2-(3-fluoro-6-methoxy-1,5-naphthyridin-4-yl)ethanol] | 0.031 (≈ 0.0626 µM)
COc1ccc2ncc(F)c(CC(O)C34CCC(NC(=O)c5ccc(C)c(F)c5)(CC3)CO4)c2n1 (stereo not drawn) [Example 173, 3-Fluoro-N-{1-[2-(3-fluoro-6-methoxy-1,5-naphthyridin-4-yl)-1-hydroxyethyl]-2-oxabicyclo[2.2.2]oct-4-yl}-4-methylbenzamide] | 0.125 (≈ 0.259 µM)
COc1nc2c(CCC34CCC(NCc5ccc6c(n5)NC(=O)CO6)(CC3)CO4)c(F)cnc2cc1F [Example 174, 6-[({1-[2-(3,7-Difluoro-6-methoxy-1,5-naphthyridin-4-yl)ethyl]-2-oxabicyclo[2.2.2]oct-4-yl}amino)methyl]-2H-pyrido[3,2-b][1,4]oxazin-3(4H)-one] | 0.031 (≈ 0.0606 µM)
CC(C)(O)CCOc1ccc2ncc(F)c(CCC34CCC(NCc5ccc6c(n5)NC(=O)CO6)(CC3)CO4)c2n1 [Example 175, 6-{[(1-{2-[3-Fluoro-6-(3-hydroxy-3-methylbutoxy)-1,5-naphthyridin-4-yl]ethyl}-2-oxabicyclo[2.2.2]oct-4-yl)amino]methyl}-2H-pyrido[3,2-b][1,4]oxazin-3(4H)-one] | 1 (≈ 1.77 µM)
COc1ccc2ncc(F)c(CCC34CCC(N(C)Cc5ccc6c(n5)NC(=O)CO6)(CC3)CO4)c2n1 [Example 176, 6-{[{1-[2-(3-Fluoro-6-methoxy-1,5-naphthyridin-4-yl)ethyl]-2-oxabicyclo[2.2.2]oct-4-yl}(methyl)amino]methyl}-2H-pyrido[3,2-b][1,4]oxazin-3(4H)-one] | 0.125 (≈ 0.246 µM)
COc1ccc2ncc(F)c(CCC34CCC(NCc5cc6c(nn5)OCC(=O)N6)(CC3)CO4)c2n1 [Example 177, 3-[({1-[2-(3-Fluoro-6-methoxy-1,5-naphthyridin-4-yl)ethyl]-2-oxabicyclo[2.2.2]oct-4-yl}amino)methyl]-5H-pyridazino [3,4-b][1,4]oxazin-6(7H)-one] | 1 (≈ 2.02 µM)
COc1ccc2ncc(F)c(CCC34CCC(NCc5ccc6ncc(=O)[nH]c6n5)(CC3)CO4)c2n1 [Example 178, 6-[({1-[2-(3-Fluoro-6-methoxy-1,5-naphthyridin-4-yl)ethyl]-2-oxabicyclo[2.2.2]oct-4-yl}amino)methyl]pyrido[2,3-b]pyrazin-3(4H)-one] | 0.063 (≈ 0.128 µM)
COc1ccc2ncc(F)c(CCC34CCC(NCc5cc6[nH]c(=O)cnc6cn5)(CC3)CO4)c2n1 [Example 179, 7-[({1-[2-(3-Fluoro-6-methoxy-1,5-naphthyridin-4-yl)ethyl]-2-oxabicyclo[2.2.2]oct-4-yl}amino)methyl]pyrido[3,4-b]pyrazin-2(1H)-one] | 0.5 (≈ 1.02 µM)
N#Cc1ccc2ccc(=O)n(CCC34CCC(NCc5ccc6c(n5)NC(=O)CO6)(CC3)CO4)c2c1 [Example 180, 2-Oxo-1-[2-(4-{[(3-oxo-3,4-dihydro-2H-pyrido[3,2-b][1,4]oxazin-6-yl)methyl]amino}-2-oxabicyclo[2.2.2]oct-1-yl)ethyl]-1,2-dihydroquinoline-7-carbonitrile] | 0.031 (≈ 0.0638 µM)
CC(O)CCOc1ccc2ncc(F)c(CCC34CCC(NCc5ccc6c(n5)NC(=O)CO6)(CC3)CO4)c2n1 (stereo not drawn) [Example 181, 6-{[(1-{2-[3-Fluoro-6-(3-hydroxybutoxy)-1,5-naphthyridin-4-yl]ethyl}-2-oxabicyclo[2.2.2]oct-4-yl)amino]methyl}-2H-pyrido[3,2-b][1,4]oxazin-3(4H)-one] | 0.125 (≈ 0.227 µM)
COc1ccc2ncc(F)c(CC(O)C34CCC(NCc5cc6[nH]c(=O)cnc6cn5)(CC3)CO4)c2n1 (stereo not drawn) [Example 182, 7-[({1-[2-(3-Fluoro-6-methoxy-1,5-naphthyridin-4-yl)-1-hydroxyethyl]-2-oxabicyclo[2.2.2]oct-4-yl}amino)methyl]pyrido[3,4-b]pyrazin-2(1H)-one] | 4 (≈ 7.9 µM)
COc1ccc2ncc(F)c(CCC34CCC(NCc5cc6cccnc6n(C)c5=O)(CC3)CO4)c2n1.Cl [Example 183, 3-((1-(2-(3-Fluoro-6-methoxy-1,5-naphthyridin-4-yl)ethyl)-2-oxabicyclo[2.2.2]octan-4-ylamino)methyl)-1-methyl-1,8-naphthyridin-2(1H)-one Hydrochloride] | 1
N[C@@H]1CO[C@@H]1COc1ccc2ncc(F)c(CCC34CCC(NCc5ccc6c(n5)NC(=O)CO6)(CC3)CO4)c2n1 [Example 184, 6-((1-(2-(6-(((2S,3R)-3-Aminooxetan-2-yl)methoxy)-3-fluoro-1,5-naphthyridin-4-yl)ethyl)-2-oxabicyclo[2.2.2]octan-4-ylamino)methyl)-2H-pyrido[3,2-b][1,4]oxazin-3(4H)-one] | 0.25 (≈ 0.443 µM)
N[C@@H]1CO[C@H]1COc1ccc2ncc(F)c(CCC34CCC(NCc5ccc6c(n5)NC(=O)CO6)(CC3)CO4)c2n1 [Example 185, 6-((1-(2-(6-(((2R,3R)-3-Aminooxetan-2-yl)methoxy)-3-fluoro-1,5-naphthyridin-4-yl)ethyl)-2-oxabicyclo[2.2.2]octan-4-ylamino)methyl)-2H-pyrido[3,2-b][1,4]oxazin-3(4H)-one] | 0.125 (≈ 0.221 µM)
C=CCOc1ccc2ncc(F)c(CCC34CCC(NCc5ccc6c(n5)NC(=O)CO6)(CC3)CO4)c2n1 [Example 186, 6-{[(1-{2-[3-Fluoro-6-(prop-2-en-1-yloxy)-1,5-naphthyridin-4-yl]ethyl}-2-oxabicyclo[2.2.2]oct-4-yl)amino]methyl}-2H-pyrido[3,2-b][1,4]oxazin-3(4H)-one] | 0.063 (≈ 0.121 µM)
COc1ccc2ncc(F)c(CCC34CCC(NC/C=C/c5cc(F)ccc5F)(CC3)CO4)c2n1 [Example 188, (E)-N-(3-(2,5-Difluorophenyl)allyl)-1-(2-(3-fluoro-6-methoxy-1,5-naphthyridin-4-yl)ethyl)-2-oxabicyclo[2.2.2]octan-4-amine] | 0.016 (≈ 0.0331 µM)
COc1cc(F)c2ncc(F)c(CCC34CCC(NCc5ccc6c(n5)NC(=O)CO6)(CC3)CO4)c2c1.Cl [Example 189, 6-((1-(2-(3,8-Difluoro-6-methoxyquinolin-4-yl)ethyl)-2-oxabicyclo[2.2.2]octan-4-ylamino)methyl)-2H-pyrido[3,2-b][1,4]oxazin-3(4H)-one Hydrochloride] | 0.016
COc1ccc2ncc(F)c(CC(C)(O)C34CCC(NCc5ccc6c(n5)NC(=O)CO6)(CC3)CO4)c2n1.Cl (stereo not drawn) [Example 190, 6-((1-(1-(3-Fluoro-6-methoxy-1,5-naphthyridin-4-yl)-2-hydroxypropan-2-yl)-2-oxabicyclo[2.2.2]octan-4-ylamino)methyl)-2H-pyrido[3,2-b][1,4]oxazin-3(4H)-one Hydrochloride] | 0.063
COc1cc(C)c2ncc(F)c(CCC34CCC(NCc5ccc6c(n5)NC(=O)CO6)(CC3)CO4)c2n1.Cl [Example 191, 6-((1-(2-(3-Fluoro-6-methoxy-8-methyl-1,5-naphthyridin-4-yl)ethyl)-2-oxabicyclo[2.2.2]octan-4-ylamino)methyl)-2H-pyrido[3,2-b][1,4]oxazin-3(4H)-one Hydrochloride] | 0.016
CNC(=O)COc1ccc2ncc(F)c(CCC34CCC(NC/C=C/c5cc(F)ccc5F)(CC3)CO4)c2n1 [Example 192, (E)-2-(8-(2-(4-(3-(2,5-Difluorophenyl)allylamino)-2-oxabicyclo[2.2.2]octan-1-yl)ethyl)-7-fluoro-1,5-naphthyridin-2-yloxy)-N-methylacetamide] | 0.031 (≈ 0.0573 µM)
COc1ccc2ncc(F)c(CCC34CCC(NC/C=C/c5ccccn5)(CC3)CO4)c2n1 [Example 193, (E)-1-(2-(3-Fluoro-6-methoxy-1,5-naphthyridin-4-yl)ethyl)-N-(3-(pyridin-2-yl)allyl)-2-oxabicyclo[2.2.2]octan-4-amine] | 0.031 (≈ 0.0691 µM)
COc1ccc2ncc(F)c(C(CO)CC34CCC(NCc5ccc6c(n5)NC(=O)CO6)(CC3)CO4)c2n1.Cl (stereo not drawn) [Example 194, 1-(2-(3-Fluoro-6-methoxy-1,5-naphthyridin-4-yl)-3-hydroxypropyl)-N-((3-oxo-3,4-dihydro-2H-pyrido[3,2-b][1,4]oxazin-6-yl)methyl)-2-oxabicyclo[2.2.2]octan-4-aminium chloride] | 1
COc1ccc2ncc(F)c(C(CC34CCC(NCc5ccc6c(n5)NC(=O)CO6)(CC3)CO4)C(=O)[O-])c2n1.[Na+] (stereo not drawn) [Example 195, Sodium 2-(3-fluoro-6-methoxy-1,5-naphthyridin-4-yl)-3-(4-(((3-oxo-3,4-dihydro-2H-pyrido[3,2-b][1,4]oxazin-6-yl)methyl)amino)-2-oxabicyclo[2.2.2]octan-1-yl)propanoate] | 1
COc1ccc2ncc(F)c(CCC34CCC(NC(=O)c5nc6c(cc5Cl)SCC(=O)N6)(CC3)CC4)c2n1 [Example 196, 7-Chloro-N-(4-(2-(3-fluoro-6-methoxy-1,5-naphthyridin-4-yl)ethyl)bicyclo[2.2.2]octan-1-yl)-3-oxo-3,4-dihydro-2H-pyrido[3,2-b][1,4]thiazine-6-carboxamide] | 0.25 (≈ 0.45 µM)
